Source: US20230149419A1, “COMPOSITION FOR PREVENTING OR TREATING NEUROINFLAMMATORY DISEASES, COMPRISING CHLORPROMAZINE” (GliaCellTech Inc., priority 2020, published 2023)

Key:
[1] = system: primary microglia from Psen2^N141I/+ mice with Alzheimer's disease; assay: LPS-induced cytokine mRNA expression in primary microglia (qRT-PCR), Psen2 mutation; assay type: cell-based, mouse
Description: (§1) Primary microglia were obtained from wild-type mice and Psen2^N141I/+ mice with Alzheimer's disease. Specifically, brains were excised from neonatal mice 1 to 3 days old and cells were obtained therefrom. The cells were cultured in Dulbecco's modified Eagle's medium (DMEM, Corning) supplemented with 10% heat-inactivated fetal bovine serum (HI-FBS, Hyclone) and 1% penicillin-streptomycin (Hyclone). Primary microglia were isolated in vitro by tapping after 12 days of culturing. Purity of primary microglia was estimated by immunostaining with an antibody against Iba-1, which is a microglial marker.
(§2) In this regard, the primary microglia were preincubated with or without 0.5 μM chlorpromazine for 30 min before LPS treatment. Anti-inflammatory effects were compared and analyzed between the test groups.
The culture of each group was measured for microglial mRNA expression levels of the target cytokines by qRT-PCR (quantitative RT-PCR). Specifically, RNA was isolated from the microglia and cDNA was synthesized using an ImProm-II Reverse Transcriptase kit (Promega). PCR primers were commercially available (Cosmo Genetech). qRT-PCR was performed using Taq Polymerase (Invitrogen) and mouse cDNA-specific primers listed in Table 6, below. In addition, TOPreal™ qPCR 2×PreMIX (SYBR Green with low ROX) (Enzynomics) was used. Amplification (50 cycles) was performed for 50 cycles with all primers in a CFX96 Real-Time System (Bio-Rad). Actb was used as the reference genes for normalization.

[2] = system: primary microglia from Psen2^N141I/+ mice with Alzheimer's disease; assay: LPS-induced inflammatory cytokine secretion in primary microglia (ELISA), Psen2 mutation; assay type: cell-based, mouse
Description: as §1, §2

[3] = system: primary microglia from wild-type mice; assay: IL-1β secretion after LPS and inflammasome activation (nigericin/ATP), wild-type microglia; assay type: cell-based, mouse; conditions: chlorpromazine 0.5 μM 30 min, LPS 1 μg/mL 3 h
Description: as §1
IL-1β is a cytokine released from an activated inflammasome complex in microglia. For secretion of the cytokine, additional treatment with a drug for inducing activation of the inflammasome complex is necessary following LPS-induced inflammation. […] Application of the test groups thus obtained could divide groups 5 to 8 of Example 5-2 into 10 subgroups according to treatment with nigericin and ATP.

[4] = system: Nr1d1 mRNA in primary microglia from wild-type mice; assay: Nr1d1 mRNA expression in primary microglia (qRT-PCR), wild-type; assay type: cell-based, mouse
Description: Effects were analyzed in the experimental group not treated with chlorpromazine on the obtained microglia and the experimental group treated with chlorpromazine at a dose of 0.5 μM.

[5] = system: REV-ERBα protein in primary microglia from wild-type mice; assay: REV-ERBα protein expression in primary microglia (western blotting), wild-type; assay type: cell-based, mouse
Description: Effects were analyzed in the experimental group not treated with chlorpromazine on the obtained microglia and the experimental group treated with chlorpromazine at a dose of 0.5 μM. For analysis of REV-ERBα protein expression levels, western blotting was carried out. Specifically, primary microglia were lysed in a 1% Triton X-100 lysis buffer (1% Triton X-100, 250 mM sucrose, 1 mM EDTA, 1 mM phenylmethylsulfonyl fluoride, and 50 mM NaCl in 20 mM Tris-HCl, pH 7.4) with 1×protease and phosphatase inhibitors (Thermo Fisher Scientific) and 0.1 M dithiothreitol (Sigma-Aldrich). The cell lysates were separated by sodium dodecyl sulfate-polyacrylamide gel electrophoresis and transferred to polyvinylidene fluoride membranes. The membranes were incubated with the appropriate primary antibodies, and bound antibodies were detected by species-specific, horseradish peroxidase-conjugated secondary antibodies. Chemiluminescence detection was performed to analyze the protein bands of interest.

[6] = system: wild-type mice; assay: Y-maze test, wild-type mice; assay type: in vivo, mouse; conditions: for Y-maze Alternation % / Y-maze No. of Arm entry: chlorpromazine 0.25 mg/kg i.p., mean±SEM
Description: Specifically, the Y-maze was used to evaluate spatial working memory. The assay was conducted in white plastic arms of a Y-shaped maze. A mouse was placed in the center of the maze and was allowed to freely explore the arms for 5 min. The experiment was recorded with EthoVision software (Noldus). The number of arm entries and the number of triads were analyzed to calculate the percentage of alternation by dividing the number of three consecutive arm entries (triads) by the number of possible triads×100 (total arm entries−2).
An examination was made to see whether LPS-induced inflammation causes memory decline and chlorpromazine reverses the LPS-induced inflammation in disease animal models. To analyze memory and behavior performance, the Y-maze test as in Example 4 was conducted.

[7] = system: primary microglia from wild-type mice; assay: LPS-induced inflammatory cytokine secretion in primary microglia (ELISA), wild-type; assay type: cell-based, mouse
Description: as §1, §2

[8] = system: primary microglia from Psen2 mutation (KI/+) mouse model of Alzheimer's disease; assay: fAβ42-induced cytokine secretion in primary microglia (ELISA), Psen2 mutation; assay type: cell-based
Description: as §1
Specifically, FITC-conjugated amyloid beta 1-42 was prepared according to the follow reference (Cho, M.-H. et al. “Autophagy in microglia degrades extracellular β-amyloid fibrils and regulates the NLRP3 inflammasome.” Autophagy 10, 1761-1775 (2014)).
The primary cultures of microglia prepared in Example 5-1 from the Psen2 mutation (KI/+) mouse model of Alzheimer's disease and the wild-type (WT) mice were directly treated with 4 μM of the fibrilized amyloid beta 1-42 (fAβ42), followed by incubation with or without 0.5 μM chlorpromazine.

[9] = KI/+ microglia, LPS 1 μg/mL 12 h, 0.5 μM chlorpromazine (Group 8)
[10] = Psen2 mutation microglia, groups 7 vs 8, chlorpromazine 0.5 μM, LPS
[11] = KI/+ microglia, LPS 1 μg/mL 12 h, preincubated 0.5 μM chlorpromazine 30 min (Group 8)
[12] = WT microglia, no LPS, 0.5 μM chlorpromazine (Group 28), mean±SEM
[13] = wild-type/LPS(+)/CPZ(+) (Group 44), LPS 0.35 μg/kg
[14] = wild-type/LPS(−)/CPZ(+) (Group 42)
[15] = WT microglia, LPS 1 μg/mL 12 h, preincubated 0.5 μM chlorpromazine 30 min (Group 6)
[16] = KI/+ microglia, 4 μM fAβ42, 0.5 μM chlorpromazine (Group 26)

CN(C)CCCN1c2ccccc2Sc2ccc(Cl)cc21 [CPZ, 3-(2-chloro-10H-phenothiazin-10-yl)-N,N-dimethyl-propan-1-amine]
Inflammatory cytokine expression Ccl2 (mRNA) [1, 9]: 0.670 fold | Inflammatory cytokine expression Ccl5 (mRNA) [1, 9]: 0.730 fold | Inflammatory cytokine expression Cxcl1 (mRNA) [1, 9]: 0.692 fold | Inflammatory cytokine expression Il-6 (mRNA) [1, 9]: 0.538 fold | Inflammatory cytokine expression Tnf (mRNA) [1, 9]: 1.020 fold | mRNA expression of IL-6, CXCL1, CCL2, and CCL5 (in words) [1, 10]: decrease the mRNA expression | mRNA level of TNF-α (in words) ([1]; across all the groups (WT and KI/+ microglia), LPS): no impacts | Inflammatory cytokine secreted CCL2 [2, 11]: 734.064 pg/mL | Inflammatory cytokine secreted CCL5 [2, 11]: 804.394 pg/mL | Inflammatory cytokine secreted CXCL1 [2, 11]: 924.907 pg/mL | Inflammatory cytokine secreted IL-6 [2, 11]: 2724.458 pg/mL | Inflammatory cytokine secreted TNF-α [2, 11]: 1532.733 pg/mL | production of IL-6, CXCL1, CCL2, and CCL5 (in words) [2, 10]: decrease the production | production of TNF-α (in words) ([2]; across all the groups (WT and KI/+ microglia), chlorpromazine 0.5 μM, LPS): no impacts | IL-1β secreted ([3]; wild-type microglia (Group 15), Nig(+)/ATP(−), nigericin 10 μM 40 min): 857.639 pg/mL | IL-1β secreted ([3]; wild-type microglia (Group 17), Nig(−)/ATP(+), ATP 5 mM 40 min): 1251.571 pg/mL | Nr1d1 mRNA expression [4, 12]: 0.860 ± 0.040 fold | Nr1d1 mRNA expression level (in words) ([4]; wild-type microglia, chlorpromazine 0.5 μM): ineffective | REV-ERBα protein expression [5, 12]: 0.956 ± 0.096 fold | REV-ERBα protein expression level (in words) ([5]; wild-type microglia, group 28): no effect | memory performance, arm alternation in Y-maze (in words) ([6]; wild-type mice, chlorpromazine alone (group 42) or with LPS (group 44)): normal memory performance | Y-maze Alternation % [6, 13]: 64.333 ± 3.175% | Y-maze No. of Arm entry [6, 13]: 17.889 ± 1.136 | Y-maze Alternation % [6, 14]: 66.667 ± 4.681% | Y-maze No. of Arm entry [6, 14]: 20.167 ± 1.537 | Inflammatory cytokine secreted CCL2 [7, 15]: 948.716 pg/mL | Inflammatory cytokine secreted CCL5 [7, 15]: 948.716 pg/mL | Inflammatory cytokine secreted CXCL1 [7, 15]: 937.727 pg/mL | Inflammatory cytokine secreted TNF-α [7, 15]: 1414.237 pg/mL | Inflammatory cytokine secreted IL-6 ([7]; WT microglia, LPS 1 μg/mL 12 h, preincubated 0.5 μM chlorpromazine 30 min (Group 6), mean): 2228.546 pg/mL | protein levels of circadian clock-controlled cytokines (in words) ([7]; wild-type microglia, groups 5 and 6, chlorpromazine 0.5 μM, LPS): not affected | Secreted inflammatory cytokine CCL2 [8, 16]: 1645.882 pg/mL | Secreted inflammatory cytokine CCL5 [8, 16]: 1818.188 pg/mL | Secreted inflammatory cytokine CXCL1 [8, 16]: 1528.621 pg/mL | Secreted inflammatory cytokine IL-6 [8, 16]: 1336.446 pg/mL | Secreted inflammatory cytokine TNF-α [8, 16]: 1352.738 pg/mL | anti-inflammatory effect after fAβ42 (in words) ([8]; microglia from Psen2 mutation mouse model (group 26), 0.5 μM chlorpromazine): exhibited an anti-inflammatory effect | levels of TNF-α after fAβ42 (in words) ([8]; microglia from wild-type mice and Psen2 mutation model): no impacts
